These results are taken from US9951035B2, “Selective matrix metalloproteinase inhibitors” (University of Notre Dame du Lac, priority 2014, dated 2018).

In general, inhibition refers to the change of the read-out against control, counted positive when it falls. A low value points to a weak effect. The solubility is how much of the substance goes into solution per volume. Lower therefore signals little dissolved substance.

In brackets after ≈: the same amount, converted by molar mass.

One series has as its target MMP-2 (Homo sapiens (Human), UniProt P08253). The following applies: literature / previously reported; cited from earlier work.
The next series has as its system diabetic (db/db) mice. In words: Mouse diabetic wound model. The class given is in vivo. The following applies: for wound healing versus vehicle: 0.25 mg/wound/day; for wound healing versus vehicle / wound closure: db/db mice; for wound closure: 0.25 mg/wound/day topical. The source says: The excisional mouse diabetic model validated by Sullivan et al. was used (Sullivan et al., Plast. Reconstr. Surg. (2004) 113, 953-960). The procedure for inflicting the wounds (single 8 mm wound on the dorsal region) was the same as described previously (Gooyit et al., ACS Chem. Biol. (2014) 9, 505-510). Wounds were photographed and covered with a sterile 3M Tegaderm™ transparent dressing (Butler Schein Animal Health, Inc.).
Female diabetic db/db (BKS.Cg-Dock7m+/+Leprdb/J, 8-weeks old, 38±3 g, n=24) were used for this study. Wounds were inflicted as described. Treatment with the MMP-2 inhibitor (50 μL of 5.0 mg/mL in 80% propylene glycol/20% DMSO, equivalent to 0.25 mg per wound) or vehicle (50 μL of 80% propylene glycol/20% DMSO) was started one day after wound infliction and continued once a day for 14 days. Digital photographs of wounds were taken on days 0, 7, 10, and 14 while the animals were under isoflurane anesthesia. On day 14, all mice were sacrificed. The wounds were excised, embedded in optimal cutting temperature (OCT) compound, and cryosectioned for histological evaluation.
Female diabetic db/db (BKS.Cg-Dock7m+/+Leprdb/J, 8-weeks old, 38±3 g, n=24) were used for this study. Wounds were inflicted and the following day the wounds were treated topically with MMP-8 (50 μL of 20 μg/mL MMP-8 in reaction buffer) or vehicle (50 μL reaction buffer) once a day for 14 days. The reaction buffer consisted of 50 mM Tris (pH 7.5), 10 mM CaCl2, 150 mM NaCl, and 0.05% (w/v) Brij-35. Digital photographs of the wounds were taken on days 0, 7, 10, and 14 while animals were under isoflurane anesthesia. On days 7 and 14, 12 mice (n=6 per group) were sacrificed. The wounds were excised, embedded in OCT compound, and cryosectioned for histological evaluation.
Photographs were taken using the procedure described by Gooyit et al. (ACS Chem Biol. (2014) 9, 505-510) at a fixed distance above the wounds and calibrated using a ruler included in the photographic frame. Image J 1.48c software was used to calculate wound areas. The percentage of wound closure was calculated from the wound area on the specified day relative to that on day 0.
Fresh wound tissue was harvested and embedded in OCT compound. Subsequently, the tissue was cryosectioned for H&E staining (12-μm thickness) and for apoptosis assays and in-situ zymography (8-μm thickness). Re-epithelialization was assessed on a Nikon Eclipse 90i Fluorescent Microscope (Nikon Instruments Inc.) as described earlier (Tkalcevic et al., Toxicol. Pathol. (2009) 37, 183-192). Apoptosis was evaluated using Derma TACS™ Apoptosis detection kits (Trevigen, Inc.) according to the manufacturer's instructions. The protocol of in-situ zymography was adapted from known methods. Gelatinolytic activity was detected in unfixed cryostat sections using DQ-gelatin as a substrate. DQ-gelatin was prepared at a concentration of 20 μg/mL in Tris-buffered saline (TBS) buffer (50 mM TBS pH 7.6, 1 mM CaCl2). A general MMP inhibitor in 0.5 mM EDTA was prepared as a negative control. Cryostat sections were air-dried for 10 min and incubated in the substrate mixture in the presence and absence of EDTA for 1 hr at room temperature. After the incubation period, the slides were washed in PBS (three times, 5 min each), fixed with 4% paraformaldehyde in PBS for 10 min in the dark, washed again with PBS (three times, 5 min each), incubated in the dark for 5 min with 300 nM DAPI solution, and mounted with anti-quenching mounting medium. Fluorescence of FITC was detected with excitation at 460-500 nm and emission at 512-542 nm. DAPI was detected with excitation at 340-380 nm and emission at 425-∞ nm.
Data are expressed as mean±SD. Wound healing between the groups in the studies were analyzed for statistical significance using a paired Student t-test, where p<0.05 was considered statistically significant.

In another series the target is MMP-9 (Homo sapiens (Human), UniProt P14780). To be noted: at 50,000 nM; Gooyit et al. 2013; cited from earlier work.
The target of the next series is ADAM9 (Homo sapiens (Human), UniProt Q13443). The series can be described thus: Enzyme inhibition studies, ADAM9. The class given is biochemical.
The target of the next series is ADAM10 (Homo sapiens (Human), UniProt O14672). The series can be described thus: Enzyme inhibition studies, ADAM10. The class given is biochemical.
Another series in a line: physchem. The following applies: water, thermodynamic from solid.
The subject of series [1] is non-diabetic wounds. The series can be described thus: Healing of non-diabetic wounds. The class given is in vivo, mice. The following applies: in words.
A further series has as its target MMP-7 (Homo sapiens (Human), UniProt P09237). To be noted: at 250 μM; data from Gooyit et al. 2014; cited from earlier work.
A further series concerns the target MMP-1 (Homo sapiens (Human), UniProt P03956). The following applies: at 250 μM; data from Gooyit et al. 2014; cited from earlier work.
Series [2] concerns non-diabetic wounds. The following applies: rats, pigs, and humans; in words; cited from earlier work.
The next series deals with MMP-14 (Homo sapiens (Human), UniProt P50281). To be noted: literature; cited from earlier work.

MMP-7, sequence (P09237 95-267): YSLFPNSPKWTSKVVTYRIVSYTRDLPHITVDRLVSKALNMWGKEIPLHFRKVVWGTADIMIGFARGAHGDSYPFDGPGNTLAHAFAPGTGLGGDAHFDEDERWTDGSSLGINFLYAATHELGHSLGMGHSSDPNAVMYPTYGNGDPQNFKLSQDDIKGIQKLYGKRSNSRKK
MMP-1, sequence (P03956 98-276): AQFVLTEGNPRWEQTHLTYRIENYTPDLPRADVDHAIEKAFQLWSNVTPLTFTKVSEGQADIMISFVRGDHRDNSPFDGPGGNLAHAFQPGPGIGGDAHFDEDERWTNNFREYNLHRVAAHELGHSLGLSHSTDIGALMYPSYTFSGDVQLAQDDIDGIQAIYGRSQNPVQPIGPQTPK
MMP-9, sequence (P14780 107-444): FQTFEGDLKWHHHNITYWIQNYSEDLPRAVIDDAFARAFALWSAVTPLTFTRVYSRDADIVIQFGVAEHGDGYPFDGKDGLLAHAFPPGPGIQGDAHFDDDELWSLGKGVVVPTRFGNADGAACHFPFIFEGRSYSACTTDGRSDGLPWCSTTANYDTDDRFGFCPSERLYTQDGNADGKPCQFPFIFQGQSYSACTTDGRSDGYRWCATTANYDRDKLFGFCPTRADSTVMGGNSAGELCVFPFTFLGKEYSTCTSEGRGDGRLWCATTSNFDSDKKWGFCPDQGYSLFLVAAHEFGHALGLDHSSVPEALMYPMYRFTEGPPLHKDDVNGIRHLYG
MMP-2, sequence (P08253 110-660): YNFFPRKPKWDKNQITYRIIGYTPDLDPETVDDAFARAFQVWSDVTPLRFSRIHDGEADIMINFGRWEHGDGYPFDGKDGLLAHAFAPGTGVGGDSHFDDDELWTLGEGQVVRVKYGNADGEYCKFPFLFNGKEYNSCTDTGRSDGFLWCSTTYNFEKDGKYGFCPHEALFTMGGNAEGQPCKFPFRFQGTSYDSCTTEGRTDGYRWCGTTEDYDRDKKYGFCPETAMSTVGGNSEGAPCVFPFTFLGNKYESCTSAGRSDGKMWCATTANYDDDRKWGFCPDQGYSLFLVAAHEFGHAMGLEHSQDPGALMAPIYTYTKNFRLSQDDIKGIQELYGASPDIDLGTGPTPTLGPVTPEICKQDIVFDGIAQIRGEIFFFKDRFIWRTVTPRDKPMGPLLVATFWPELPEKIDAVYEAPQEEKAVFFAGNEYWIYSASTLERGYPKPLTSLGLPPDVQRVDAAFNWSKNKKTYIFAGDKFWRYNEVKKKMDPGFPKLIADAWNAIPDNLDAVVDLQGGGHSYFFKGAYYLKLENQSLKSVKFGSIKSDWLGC
ADAM10, sequence (O14672 214-672): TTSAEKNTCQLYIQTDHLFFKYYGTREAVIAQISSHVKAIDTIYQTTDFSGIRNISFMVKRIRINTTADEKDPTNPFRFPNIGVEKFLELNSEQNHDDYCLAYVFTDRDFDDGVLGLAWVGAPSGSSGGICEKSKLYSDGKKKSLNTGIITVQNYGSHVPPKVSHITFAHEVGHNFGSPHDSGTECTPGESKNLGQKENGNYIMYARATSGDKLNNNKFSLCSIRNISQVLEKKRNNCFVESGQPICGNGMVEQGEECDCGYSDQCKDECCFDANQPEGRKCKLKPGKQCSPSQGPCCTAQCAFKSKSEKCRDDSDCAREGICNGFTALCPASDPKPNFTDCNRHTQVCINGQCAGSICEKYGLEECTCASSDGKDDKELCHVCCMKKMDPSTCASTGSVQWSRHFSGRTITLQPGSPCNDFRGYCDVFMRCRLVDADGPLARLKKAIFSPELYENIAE
ADAM9, sequence (Q13443 206-697): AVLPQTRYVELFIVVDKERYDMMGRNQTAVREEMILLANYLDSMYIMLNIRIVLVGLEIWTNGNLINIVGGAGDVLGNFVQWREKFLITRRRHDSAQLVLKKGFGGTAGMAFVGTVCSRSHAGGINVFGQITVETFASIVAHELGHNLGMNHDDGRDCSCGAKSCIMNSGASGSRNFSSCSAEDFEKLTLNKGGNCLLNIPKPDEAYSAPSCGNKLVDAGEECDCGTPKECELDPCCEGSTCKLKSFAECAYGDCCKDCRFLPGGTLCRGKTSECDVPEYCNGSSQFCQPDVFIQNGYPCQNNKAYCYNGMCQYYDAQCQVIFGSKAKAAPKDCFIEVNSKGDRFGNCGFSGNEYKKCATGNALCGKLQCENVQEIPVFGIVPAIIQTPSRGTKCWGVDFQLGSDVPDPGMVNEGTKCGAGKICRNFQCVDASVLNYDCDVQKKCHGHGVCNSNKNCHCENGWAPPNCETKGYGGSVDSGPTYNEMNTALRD

Turning to `CCNC(=O)Nc1ccc(Oc2ccc(S(=O)(=O)CC3CS3)cc2)cc1` (centres unmarked) [Compound 1x], the “residence time bound to MMP-2” value on MMP-2 was 24.5 min. Besides, the “wound healing versus vehicle” value is “No significant differences” in the series with diabetic (db/db) mice (in words) and “No differences were observed between the groups” with diabetic (db/db) mice (in words, listed as MMP-2 inhibitor). Also, the re-epithelialization result in the series with diabetic (db/db) mice (H&E staining, day 14, in words) is “Partial re-epithelialization”. The values for the wound closure in the series on diabetic (db/db) mice (day 7), in the series with diabetic (db/db) mice (day 10) and in the series on diabetic (db/db) mice (day 14) were 23±16%, 45±11% and 70±15%, respectively. Also, the MMP-9 inhibition at MMP-9 is listed as 28%.

Take `Nc1ccc(Oc2ccc(S(=O)(=O)CC3CS3)cc2)cc1` (centres unmarked) [Compound 2]: the results for the inhibition at 20 µM on ADAM9 and against ADAM10 were 30% and 21%, respectively. Moreover, in “physchem”, the solubility was found to be 4.9 mg/mL (≈ 15.2 mM). Besides, the “healing of diabetic wounds” value with diabetic (db/db) mice (selective MMP-9 inhibition, in words) was “healed more rapidly”. Moreover, in the series with non-diabetic wounds [1], the “effect on non-diabetic wounds” value is on record as “does not show any effect”. Also, the Inhibition on MMP-7 is 16%^i, j; on MMP-1, 10%^i, j.

As to `CNC(=O)[C@H](Cc1c[nH]c2ccccc12)NC(=O)[C@@H](CC(=O)NO)CC(C)C` [ilomastat], the “wound closure and epithelialization in non-diabetic wounds” value with non-diabetic wounds [2] is “delayed wound closure and diminished epithelialization”.

B1: TIMP-4: tissue inhibitor of metalloproteinase, protein inhibitor of MMPs (protein, UniProt Q99727 30-224, looked up)
Metalloproteinase inhibitor 4: CSCAPAHPQQHICHSALVIRAKISSEKVVPASADPADTEKMLRYEIKQIKMFKGFEKVKDVQYIYTPFDSSLCGVKLEANSQKQYLLTGQVLSDGKVFIHLCNYIEPWEDLSLVQRESLNHHYHLNCGCQITTCYTVPCTISAPNECLWTDWLLERKLYGYQAQHYVCMKHVDGTCSWYRGHLPLRKEFVDIVQP
Regarding B1, the “residence time bound to MMP-14” value with MMP-14 is 39 min.
